Laboratory results published in patent US9540646B2, “Cellular targets for HIV infection” (priority 2012, dated 2017).
Entries after “also recorded” stand apart in the source; their conditions may differ. Like-named read-outs stand apart in the source and are kept apart here.

Tests used:
[1] = system: HIVADA; test: HIV replication in primary human macrophages, HIV p24 ELISA; assay type: cell-based, Human immunodeficiency virus-1 (HIV); conditions: for inhibition at 100 µM: Human immunodeficiency virus 1, Macrophage
Description: Monocyte isolation and macrophage culture: Human monocytes were isolated from leukopaks obtained from the New York Blood Center. Peripheral blood mononuclear cells (PBMCs) were isolated by differential centrifugation using a Ficoll gradient (GE Healthcare, Piscataway, N.J.) and CD14 positive cells were isolated from PBMCs using CD14 monoclonal antibodies that were then bound by magnetic nanoparticles and separated using a magnetic field (Stem Cell Technologies, Vancouver, BC, Canada). Isolated CD14 positive cells were cultured adherently for 6 days in the presence of 10 ng/ml macrophage-colony stimulating factor (PeproTech, Rocky Hill, N.J.) in RPMI 1640 with 10% FBS, 5% human AB serum, 1% P/S, and 10 mM HEPES to differentiate the cells into macrophages.
(§1) HIV replication: After 6 days in culture, macrophages in 48-well plates at a density of 10^5 cells per well were inoculated with 2-20 ng/ml HIVADA, 2 ng/ml HIVYU-2, or 0.2 ng/ml HIVBaL for 24 hours in the presence or absence of purinergic receptor inhibitors. 5 wells were inoculated per condition. After 24 hours, cells were washed with PBS and then cultured with media. Supernatants were collected and medium was changed every 24 hours until 7 days post inoculation (d.p.i.). When the inhibitors oATP, A-740003, MRS 2179, NF 279, BBG, or suramin, were used, they were added when the medium was changed every 24 hours. Viral replication was analyzed by HIV p24 ELISA (Advanced Bioscience Laboratories, Kensington, Md.) according to the manufacturer's instructions

[2] = system: β-lactamase containing HIVBaL; test: HIV Entry Assay (β-lactamase / CCF2-AM) in primary human macrophages; assay type: cell-based, Human immunodeficiency virus-1 (HIV); conditions: for reduction in viral entry (percentage of cells with viral entry) relative to HIV only: 100 μM, 4 hours, MOI 0.001-0.01, oATP N=5, others N=3
Description: HIV Entry Assay: Primary human macrophages were cultured in black 96-well plates with a clear bottom (Corning Inc., Corning, N.Y.) at a density of 43,000 cells per well. After 7-8 days in culture, cells were inoculated with β-lactamase containing HIVBaL at a multiplicity of infection (MOI) of 0.01, 0.005, or 0.001 in the presence or absence of the purinergic receptor inhibitors oATP, NF 279, A-740003, or MRS 2179 for 4 hours. Beta-lactamase containing HIVBaL was generated as described previously (27). Briefly, HEK-293T cells were transfected using calcium phosphate with two plasmids, one containing the HIVBaL genome, pWT/BaL (NIH repository), the other containing β-lactamase fused to REV vpr, pMM310 (NIH repository). Cells were transfected for 16 hours and then supernatant was collected 24 and 48 hours following transfection. […] Viral stocks were generated by sucrose gradient purification of the transfection supernatants.
Alter viral inoculation of primary human macrophages, cells were washed with phenol red-free DMEM (Gibco) then loaded with CCF2-AM for 6 hours at room temperature using the GeneBLAzer In Vivo Detection Kit (Invitrogen, Carlsbad, Calif.). CCF2-AM fluoresces green due to an internal fluorescence resonance energy transfer, but when cleaved by β-lactamase, this interaction is lost and the molecule fluoresces blue. Cells were imaged using an Olympus IX70 with a Plan 10×/0.25 air objective lens. Images were collected at room temperature through an Olympus E-620LS camera attached to the microscope through an OM adapter MF-1. Images were collected directly onto a memory card and there was no image processing following image collection. Images were collected for 8 fields in 4 separate wells per condition and percentage of cells positive for viral entry was determined by counting the number of blue cells (cells that virus had entered) as compared to the total number of blue and green cells.

[3] = system: Macrophages; test: Cell viability of macrophages, live/dead assay; assay type: cell-based; conditions: 100 μM, 24 hours
Description: Cells were imaged using a Zeiss AxioObserver.D1 with an LD Plan-Neofluar 20×/0.4 air objective lens. Images were collected at room temperature through a Zeiss AxioCam MRm camera using Axiovision software.

[4] = molecular target: T1, Panx1 hemichannels (Homo sapiens, UniProt Q96RD7); test: HIV-induced ethidium (Etd) dye uptake, time lapse fluorescence imaging, in PBMCs and CD4+ T lymphocytes; assay type: cell-based; parameters: endogenous in cells; host or cells: primary human PBMCs and purified CD4+ T lymphocytes from leukopacks (New York Blood Center); conditions: 5 min and 72 h; for Etd uptake (rate) induced by the virus: PBMCs exposed to HIVADA, CD4+ T lymphocytes exposed to HIVADA, HIVBal or HIVLAI, Prob 500 μM, 10Panx1 200 μM, scrPanx1 200 μM, La3+ 200 μM, Cx43E2 1:500, siRNA 10 nM
T1 sequence (Q96RD7 whole entry): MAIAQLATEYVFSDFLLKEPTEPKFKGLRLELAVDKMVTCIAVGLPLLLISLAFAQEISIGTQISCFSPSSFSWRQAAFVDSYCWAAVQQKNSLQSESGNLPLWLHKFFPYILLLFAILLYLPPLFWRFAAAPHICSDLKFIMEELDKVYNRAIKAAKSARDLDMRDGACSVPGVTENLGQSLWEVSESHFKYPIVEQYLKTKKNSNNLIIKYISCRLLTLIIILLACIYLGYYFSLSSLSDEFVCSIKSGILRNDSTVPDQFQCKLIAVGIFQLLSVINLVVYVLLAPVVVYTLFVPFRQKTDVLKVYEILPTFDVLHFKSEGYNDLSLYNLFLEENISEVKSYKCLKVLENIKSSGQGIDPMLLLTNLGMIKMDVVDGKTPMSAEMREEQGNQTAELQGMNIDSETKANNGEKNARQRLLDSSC
Description: Isolation of human PBMCs and CD4+ T lymphocytes. Anticoagulated blood was obtained from leukopacks obtained from the New York Blood Center as described before (16). PBMCs were isolated by under-layering with Ficoll-Paque (Amersham Bioscience, Uppsala, Sweden) according to the procedure described by the manufacturer. Purified PBMC used in these studies were ˜10% monocytes and ˜90% lymphocytes and other hematopoietic cells, as determined by incubation with premixed human CD45 and CD14 monoclonal antibodies conjugated to FITC and PE, respectively (1:50, Caltag Laboratories, Burlingame, Calif.), followed by fluorescence-activated cell sorter analysis (FACS) as we previously described (17). To obtain a pure population of CD4+ T lymphocytes, monocytes were removed from PBMCs by using CD14 coupled magnetic beads and subsequently CD4+ T lymphocytes were isolated with CD4 coupled magnetic beads (Stem Cell Technologies, Vancouver, BC, Canada).
HIV-infection and quantification of replication. Cell-free viral inocula were obtained from the National Institutes of Health AIDS Research and Reference Reagent Program. Three isolates were used: HIVADA, and HIVBal, two R5 isolates and HIVLAI, an X4 isolate, PBMCs and purified CD4+ T lymphocytes were isolated and activated with phytohemagglutinin (PHA; 5 μg/ml) plus interleukin (IL-2; 5%) in RPMI 1640 for 48 h in polypropylene tubes at a density of 2×10^6 […] PBMCs and CD4+ T lymphocytes were then infected by incubation for 24 h with viral stocks of HIVADA (20 ng p24/ml/1×10^6 cells), HIVLAI (20 ng p24/ml/1×10^6 cells) or HIVBal (0.001 MOI), washed thoroughly, resuspended in fresh medium, and maintained in polypropylene tubes. Uninfected control cells were activated with PHA plus IL-2 for 48 h, washed, and maintained in polypropylene tubes in fresh media without any virus. To determine the levels of HIV infection, the amount of HIV-p24 released into the medium was determined by ELISA (PerkinElmer, Boston, Mass.)
(§2) Dye uptake and time lapse fluorescence imaging. To characterize the functional state of Panx1 hemichannels, dye uptake experiments using ethidium (Etd) bromide were performed as previously described (18, 19). Cells were washed twice in Hank's balanced salt solution and then exposed to Locke's solution (containing: 154 mM NaCl, 5.4 mM KCl, 2.3 mM CaCl2, 5 mM HEPES and pH 7.4) with 5 μM Etd and time lapse microscopy was performed. Phase-contrast and fluorescence microscopy with time-lapse imaging were used to record cell appearance and fluorescence intensity changes in each condition. Fluorescence was recorded every 30 s. The NIH ImageJ program was used for off-line image analysis and fluorescence quantification. For data representation and calculation of Etd uptake slopes, the average of two independent background fluorescence intensity measurements (FB, expressed as arbitrary units, AU) was subtracted from fluorescence intensity′ in each cell (F1). Results of this calculation (F1-FB), for at least 20 cells, were averaged and plotted against time (expressed in minutes). Slopes were calculated using Microsoft Excel software and expressed as AU/min. Microscope and camera settings remained the same in all experiments. Dead cells were clearly identified during the time lapse microscopy due to their non specific Etd uptake (not inhibited by hemichannel blockers) and were not quantified.

[5] = molecular target: T1, Panx1 hemichannels; test: HIV-induced Etd uptake in CD4+ T lymphocytes by flow cytometry (FACS); assay type: cell-based; parameters: endogenous in cells; host or cells: primary human PBMCs and purified CD4+ T lymphocytes from leukopacks (New York Blood Center); conditions: HIVADA, 5 min and 72 h
Description: Flow cytometry. To measure Etd uptake in CD4+ T cell populations FACS analysis was performed of cells under control conditions or after HIV exposure at several time points. Etd uptake experiments were performed in CD4+ lymphocytes (3-5×10^5), and after the respective time of Etd uptake, cells were fixed with 2% paraformaldehyde for 30 min at room temperature, incubated with 1% BSA in PBS for 30 min and stained with CD4 antibody for 30 min at 4° C. For analyses of Etd positive populations, 10,000 events were acquired on a BD FACS Canto II and analyzed using FlowJo (Ashland, Oreg.) software as we previously described (17, 20).

[6] = molecular target: T1, Panx1 hemichannels; test: Etd uptake in CD4+ T lymphocytes induced by chemokines or gp120; assay type: cell-based; parameters: endogenous in cells; host or cells: primary human PBMCs and purified CD4+ T lymphocytes from leukopacks (New York Blood Center); conditions: gp120 1 μg/ml
Description: as §2

[7] = system: HIV; test: HIV replication in macrophage cultures, strain not named; assay type: cell-based; conditions: apyrase data; concentration not given
Description: as §1

## COc1ccc(CC(=O)NC(N=C(NC#N)Nc2cccc3ncccc23)C(C)(C)C)cc1OC (stereo not drawn) [A-740003, N-[1-[[(Cyanoamino)(5-quinolinylamino)methylene]amino]-2,2-dimethylpropyl]-3,4-dimethoxybenzeneacetamide]
[1]; read-out: inhibition of HIV p24 production relative to HIV plus the vehicle DMSO
  inhibition at 100 µM: 70 to 91%
[2]
  reduction in viral entry (percentage of cells with viral entry) relative to HIV only: did not change
[3]
  cell viability (live/dead assay): did not alter cell viability; also recorded: None of the antagonist caused any decrease in cell viability

## [La+3] [La^3+, Lanthanum]
[4]
  Etd uptake (rate) induced by the virus: did not cause changes
[4]; listed as Lanthanum
  Etd uptake (rate) induced by the virus: did not affect

## CNc1ncnc2c1ncn2[C@H]1C[C@H](OP(=O)([O-])[O-])[C@@H](COP(=O)([O-])[O-])O1.[Na+].[Na+].[Na+].[Na+] [MRS 2179, 2′-deoxy-N6-methyladenosine 3′,5′-bisphosphate tetrasodium salt]
[1]; 100 μM, 3 independent donors, NF 279 on days 2-7 post inoculation, read-out: inhibition of HIV p24 production as compared to HIV infected cultures without the inhibitors
  inhibition at 100 µM: 60 to 70%
[2]
  reduction in viral entry (percentage of cells with viral entry) relative to HIV only: did not change
[3]
  cell viability (live/dead assay): did not alter cell viability; also recorded: None of the antagonist caused any decrease in cell viability

## O=C(Nc1ccc(C(=O)Nc2ccc(C(=O)Nc3ccc(S(=O)(=O)[O-])c4cc(S(=O)(=O)[O-])cc(S(=O)(=O)[O-])c34)cc2)cc1)Nc1ccc(C(=O)Nc2ccc(C(=O)Nc3ccc(S(=O)(=O)[O-])c4cc(S(=O)(=O)[O-])cc(S(=O)(=O)[O-])c34)cc2)cc1.[Na+].[Na+].[Na+].[Na+].[Na+].[Na+] [NF 279, 8,8′-[Carbonylbis(imino-4,1-phenylenecarbonylimino-4,1-phenylenecarbonylimino)]bis-1,3,5-naphthalenetrisulfonic acid hexasodium salt]
[1]; 100 μM, 3 independent donors, NF 279 on days 2-7 post inoculation
  inhibition of HIV p24 production as compared to HIV infected cultures without the inhibitors: 90-98%
[2]
  reduction in viral entry (percentage of cells with viral entry) relative to HIV only: 98%
[3]
  cell viability (live/dead assay): did not alter cell viability; also recorded: None of the antagonist caused any decrease in cell viability

## Cc1ccc(-c2ccc3c(c2)C=C(C(=O)Nc2ccc(C[N+](C)(C)C4CCOCC4)cc2)CCC3)cc1.[Cl-] [TAK-779]
[4]; CD4+ T lymphocytes, HIVADA and HIVBal, TAK-779 100 ng/ml
  Etd uptake induced by R5 viruses: reduced

## CCCN(CCC)S(=O)(=O)c1ccc(C(=O)O)cc1 [probenecid]
[5]
  Etd uptake induced by the virus, analyzed by FACS: reduced Etd uptake
[5]; listed as Probenecid
  Etd uptake induced by the virus, analyzed by FACS: reduced to control conditions (100%)
[6]; 5 min
  gp120-induced Etd uptake, in presence of blockers: inhibited
[4]
  Etd uptake (rate) induced by the virus: completely blocked; also recorded: completely reduced

## Cc1ccc(C(=O)Nc2ccc(S(=O)(=O)O)c3cc(S(=O)(=O)O)cc(S(=O)(=O)O)c23)cc1NC(=O)c1cccc(NC(=O)Nc2cccc(C(=O)Nc3cc(C(=O)Nc4ccc(S(=O)(=O)O)c5cc(S(=O)(=O)O)cc(S(=O)(=O)O)c45)ccc3C)c2)c1 [suramin]
[1]; suramin, every time point tested, N=3 donors
  inhibition of HIVADA replication: 100%
[3]
  cell viability (live/dead assay): None of the antagonist caused any decrease in cell viability; also recorded: without altering cell viability

## RANTES/CCL5: a physiological ligand for CCR5
[6]; chemokines 100 ng/ml, time course
  Etd uptake after single addition of chemokine or gp120: fast and extremely transient increase (only 5 min)

## apyrase
[7]
  reduction in HIV replication in macrophages: no reduction
[2]; apyrase data, concentration not given
  reduction in HIV entry in macrophages: no reduction
